{
  "source": "patent US6790836B2",
  "about": "“Process for preparing indolopyrrolocarbazole derivatives, intermediates therefor, and preparation process of the intermediates” (Banyu Pharmaceutical Co., Ltd., priority 2000, dated 2004)",
  "data": [
    {"target": "T1, topoisomerase I (Homo sapiens, UniProt P11387)", "T1 sequence (P11387 1-765)": "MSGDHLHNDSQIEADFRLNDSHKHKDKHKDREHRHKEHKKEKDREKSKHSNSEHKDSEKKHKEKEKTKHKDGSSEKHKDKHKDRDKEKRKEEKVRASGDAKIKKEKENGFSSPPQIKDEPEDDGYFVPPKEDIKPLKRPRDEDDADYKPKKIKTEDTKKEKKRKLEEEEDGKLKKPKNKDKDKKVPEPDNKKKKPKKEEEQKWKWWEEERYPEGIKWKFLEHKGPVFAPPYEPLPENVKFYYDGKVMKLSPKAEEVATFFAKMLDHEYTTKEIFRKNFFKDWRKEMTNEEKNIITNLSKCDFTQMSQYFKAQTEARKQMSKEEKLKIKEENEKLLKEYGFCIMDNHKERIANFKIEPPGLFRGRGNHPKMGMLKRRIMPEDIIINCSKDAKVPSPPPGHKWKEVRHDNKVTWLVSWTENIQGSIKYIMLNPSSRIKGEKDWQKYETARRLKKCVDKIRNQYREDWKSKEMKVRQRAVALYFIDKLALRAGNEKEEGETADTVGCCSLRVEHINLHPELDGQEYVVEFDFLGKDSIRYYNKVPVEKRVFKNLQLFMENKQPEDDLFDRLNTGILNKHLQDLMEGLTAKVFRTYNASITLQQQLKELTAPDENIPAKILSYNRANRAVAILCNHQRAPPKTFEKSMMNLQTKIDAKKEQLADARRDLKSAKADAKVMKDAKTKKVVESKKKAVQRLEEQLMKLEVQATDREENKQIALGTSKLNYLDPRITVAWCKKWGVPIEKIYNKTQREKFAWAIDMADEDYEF", "test": "Topoisomerase I-inhibiting activity", "format": "biochemical", "details": "concentration of a compound needed to inhibit topoisomerase I activity by 50%", "protocol": "Topoisomerase I-inhibiting activity was assayed by the method described in Yoshinari, T et al., Cancer Research, vol. 55, page 1310 (1995).\nIn the table, EC50 means the concentration of a compound needed to inhibit topoisomerase I activity by 50%.", "units": {"EC50": "µM"}, "values": [
      {"compound": "CN1C(=O)c2c(c3c4ccc(O)cc4n([C@@H]4O[C@H](CO)[C@@H](O)[C@H](O)[C@H]4O)c3c3[nH]c4cc(O)ccc4c23)C1=O", "note": "[Compound [b]]", "EC50": 0.68},
      {"compound": "O=C1OC(=O)c2c1c1c3ccc(O)cc3[nH]c1c1c2c2ccc(O)cc2n1C1OC(CO)C(O)C(O)C1O", "note": "(stereo not shown) [Compound [c]]", "EC50": 0.18},
      {"compound": "O=C1OC(=O)c2c1c1c3ccc(OCc4ccccc4)cc3[nH]c1c1c2c2ccc(OCc3ccccc3)cc2n1C1OC(COCc2ccccc2)C(OCc2ccccc2)C(OCc2ccccc2)C1OCc1ccccc1", "note": "[Example 1, 12,13-dihydro-2,10-dibenzyloxy-13-(β-D-2,3,4,6-tetra-O-benzylglucopyranosyl)-5H-indolo[2,3-a]carbazole-5,6-dicarboxylic anhydride]", "EC50": "> 1000"},
      {"compound": "O=C1c2c(c3c4ccc(OCc5ccccc5)cc4n(C4OC(COCc5ccccc5)C(OCc5ccccc5)C(OCc5ccccc5)C4OCc4ccccc4)c3c3[nH]c4cc(OCc5ccccc5)ccc4c23)C(=O)N1NC(CO)CO", "note": "[Example 2, 12,13-dihydro-2,10-dibenzyloxy-6-N-(1-hydroxymethyl-2-hydroxyethylamino)-13-(β-D-2,3,4,6-tetra-O-benzylglucopyranosyl)-5H-indolo[2.3-a]pyrrolo[3,4-c]-carbazole-5,7(6H)-dione]", "EC50": "> 1000"}
    ]}
  ]
}
